The supplement of paper PMC10307832

What was measured:
Test in all cases: relative viability (nuclei count vs DMSO), 5 days (fraction); higher = more cells survive
NCI-H661 = tested on: NCI-H661
Outline: (§1)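 Lung cancer cell lines in 1536-well plates were dosed by pin tool the day after seeding, either with one drug alone or with a fixed anchor-drug dose plus five library-drug doses (not always all listed) in √10 steps. After 5 days, cells were fixed and their nuclei stained in one step (final 0.05% Triton X-100, 1% formaldehyde, 1 ug/ml Hoechst), then counted on 4× images. Relative viability is the nuclei count in treated wells divided by that in vehicle wells. Values are medians of duplicate plates.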

RERF-LC-KJ = tested on: RERF-LC-KJ
Outline: as §1

HCC-827 = tested on: HCC-827
Outline: as §1

NCI-H2342 = tested on: NCI-H2342
Outline: as §1

NCI-H1734 = tested on: NCI-H1734
Outline: as §1

ABC-1 = tested on: ABC-1
Outline: as §1

PC-14 = tested on: PC-14
Outline: as §1

SW 1573 = tested on: SW 1573
Outline: as §1

NCI-H520 = tested on: NCI-H520
Outline: as §1

NCI-H1650 = tested on: NCI-H1650
Outline: as §1

COR-L23 = tested on: COR-L23
Outline: as §1

LK-2 = tested on: LK-2
Outline: as §1

## O=C(O)c1ccc(-c2c[nH]c3ncc(-c4ccccc4)cc23)cc1C1CCCC1 + COc1cccc2cc(-c3nc([C@H]4CC[C@H](C(=O)O)CC4)n4ncnc(N)c34)[nH]c12 [OSI-027] (partner 0.5 µM)
NCI-H661; first compound 0.04 µM
  relative viability: 0.766
NCI-H661; first compound 0.4 µM
  relative viability: 0.718
NCI-H661; first compound 1.265 µM
  relative viability: 0.734
RERF-LC-KJ; first compound 0.04 µM
  relative viability: 0.561
RERF-LC-KJ; first compound 0.1265 µM
  relative viability: 0.598
RERF-LC-KJ; first compound 0.4 µM
  relative viability: 0.582
RERF-LC-KJ; first compound 1.265 µM
  relative viability: 0.527
HCC-827; first compound 0.04 µM
  relative viability: 0.65
HCC-827; first compound 0.1265 µM
  relative viability: 0.81
HCC-827; first compound 0.4 µM
  relative viability: 0.725
HCC-827; first compound 1.265 µM
  relative viability: 0.77
NCI-H2342; first compound 0.04 µM
  relative viability: 0.489
NCI-H2342; first compound 0.1265 µM
  relative viability: 0.744
NCI-H2342; first compound 0.4 µM
  relative viability: 0.748
NCI-H2342; first compound 1.265 µM
  relative viability: 0.646
NCI-H1734; first compound 0.04 µM
  relative viability: 0.621
NCI-H1734; first compound 0.1265 µM
  relative viability: 0.701
NCI-H1734; first compound 0.4 µM
  relative viability: 0.549
NCI-H1734; first compound 1.265 µM
  relative viability: 0.512
ABC-1; first compound 0.04 µM
  relative viability: 0.468
ABC-1; first compound 0.1265 µM
  relative viability: 0.511
ABC-1; first compound 0.4 µM
  relative viability: 0.418
ABC-1; first compound 1.265 µM
  relative viability: 0.568
PC-14; first compound 0.04 µM
  relative viability: 0.759
PC-14; first compound 0.1265 µM
  relative viability: 0.86
PC-14; first compound 0.4 µM
  relative viability: 0.826
PC-14; first compound 1.265 µM
  relative viability: 0.877
SW 1573; first compound 0.04 µM
  relative viability: 0.685
SW 1573; first compound 0.1265 µM
  relative viability: 0.74
SW 1573; first compound 0.4 µM
  relative viability: 0.55
SW 1573; first compound 1.265 µM
  relative viability: 0.447
NCI-H520; first compound 0.04 µM
  relative viability: 0.23
NCI-H520; first compound 0.1265 µM
  relative viability: 0.269
NCI-H520; first compound 0.4 µM
  relative viability: 0.336
NCI-H520; first compound 1.265 µM
  relative viability: 0.242
NCI-H1650; first compound 0.04 µM
  relative viability: 0.544
NCI-H1650; first compound 0.1265 µM
  relative viability: 0.624
NCI-H1650; first compound 0.4 µM
  relative viability: 0.624
NCI-H1650; first compound 1.265 µM
  relative viability: 0.394
COR-L23; first compound 0.04 µM
  relative viability: 0.763
COR-L23; first compound 0.1265 µM
  relative viability: 0.876
COR-L23; first compound 0.4 µM
  relative viability: 0.701
COR-L23; first compound 1.265 µM
  relative viability: 0.511
LK-2; first compound 0.04 µM
  relative viability: 0.202
LK-2; first compound 0.1265 µM
  relative viability: 0.23
